Laboratory results reported in patent publication US8629173B2, “Solid forms comprising (+)-2-[1-(3-ethoxy-4-methoxyphenyl)-2-methylsulfonylethyl]-4-acetylaminoisoindoline-1,3-dione, compositions thereof, and uses thereof” (Celgene Corporation, priority 2002, dated 2014).
pIC50: −log10 of the molar value. Entries after “also recorded” stand apart in the source; their conditions may differ.

What was measured:
[1] = Interconversion studies of solid forms; type: physicochemical; conditions: EQ in acetone:ethanol (1:1) at 25° C., at least 2 days
Procedure: Interconversion Studies. Interconversion experiments were performed by making slurries of a solid form in a saturated solvent. The slurries were agitated for at least 2 days at about 25° C. The saturated solution was removed by filtration and the solid was dried in the air.

[2] = Hygroscopicity (DVS moisture sorption/desorption) studies; type: physicochemical; conditions: for hygroscopicity / XRPD pattern / solid form after full adsorption/desorption cycle: DVS; for hygroscopicity: 0-95% RH; for XRPD pattern / solid form after full adsorption/desorption cycle: 0-95-0% RH; for moisture sorption mass change of the starting mass: RH increased from about 0% to about 95% RH, about 25° C.
Procedure: Hygroscopicity studies. The hygroscopicity of various solid forms was studied using a Surface Measurement Systems DVS instrument. Typically a sample size of between about 10-50 mg was loaded into the DVS instrument sample pan and the sample was analyzed on a DVS automated sorption analyzer at about 25° C. The relative humidity was increased in increments of about 10% from about 0% to about 95% RH. The relative humidity was then decreased in a similar manner to accomplish a full adsorption/desorption cycle. The mass was recorded at periodic intervals throughout the experiment.

PDE4 (from U937 cells) = assay: PDE4 (U937 cell-derived) enzyme assay; type: biochemical, human; conditions: 1 μM cAMP
bovine PDE1 = assay: PDE1 enzyme assay; type: biochemical
human PDE2 = human PDE2 (Homo sapiens, UniProt O00408); assay: PDE2 enzyme assay; type: biochemical; conditions: from Table 1 data
[3] = target: PDE3 from human platelets (Homo sapiens, UniProt Q14432); assay: PDE3 enzyme assay; type: biochemical; conditions: from Table 1 data
[4] = target: PDE5 from human platelets (Homo sapiens, UniProt O76074); assay: PDE5 enzyme assay; type: biochemical; conditions: from Table 1 data
[5] = Stability studies of solid forms; type: physicochemical; conditions: for Stability: Analysis by XRPD (solid form after stress) / Stability: Appearance: 40° C./75% RH, 4 weeks
Procedure: Stability Studies. The stabilities of Forms A, B, C and D were studied by exposing the solid samples to the stress condition of 40° C./75% RH for four weeks. Moreover, the stabilities of Forms A, B, C and D in different solvents were studied by equilibration in different solvents at 40° C. for four weeks. The slurries then were filtered and dried in the air. Solid samples obtained from the stability experiments were analyzed by XRPD and DSC.

[6] = Compression studies of solid forms; conditions: 2000 psi for at least one minute
[7] = EQ in ethanol at 40° C. for 4 weeks
[8] = EQ in heptane at 40° C. for 4 weeks
[9] = EQ in toluene at 40° C. for 4 weeks
[10] = EQ in water at 40° C. for 4 weeks

Chain of PDE3 from human platelets (Q14432 whole entry): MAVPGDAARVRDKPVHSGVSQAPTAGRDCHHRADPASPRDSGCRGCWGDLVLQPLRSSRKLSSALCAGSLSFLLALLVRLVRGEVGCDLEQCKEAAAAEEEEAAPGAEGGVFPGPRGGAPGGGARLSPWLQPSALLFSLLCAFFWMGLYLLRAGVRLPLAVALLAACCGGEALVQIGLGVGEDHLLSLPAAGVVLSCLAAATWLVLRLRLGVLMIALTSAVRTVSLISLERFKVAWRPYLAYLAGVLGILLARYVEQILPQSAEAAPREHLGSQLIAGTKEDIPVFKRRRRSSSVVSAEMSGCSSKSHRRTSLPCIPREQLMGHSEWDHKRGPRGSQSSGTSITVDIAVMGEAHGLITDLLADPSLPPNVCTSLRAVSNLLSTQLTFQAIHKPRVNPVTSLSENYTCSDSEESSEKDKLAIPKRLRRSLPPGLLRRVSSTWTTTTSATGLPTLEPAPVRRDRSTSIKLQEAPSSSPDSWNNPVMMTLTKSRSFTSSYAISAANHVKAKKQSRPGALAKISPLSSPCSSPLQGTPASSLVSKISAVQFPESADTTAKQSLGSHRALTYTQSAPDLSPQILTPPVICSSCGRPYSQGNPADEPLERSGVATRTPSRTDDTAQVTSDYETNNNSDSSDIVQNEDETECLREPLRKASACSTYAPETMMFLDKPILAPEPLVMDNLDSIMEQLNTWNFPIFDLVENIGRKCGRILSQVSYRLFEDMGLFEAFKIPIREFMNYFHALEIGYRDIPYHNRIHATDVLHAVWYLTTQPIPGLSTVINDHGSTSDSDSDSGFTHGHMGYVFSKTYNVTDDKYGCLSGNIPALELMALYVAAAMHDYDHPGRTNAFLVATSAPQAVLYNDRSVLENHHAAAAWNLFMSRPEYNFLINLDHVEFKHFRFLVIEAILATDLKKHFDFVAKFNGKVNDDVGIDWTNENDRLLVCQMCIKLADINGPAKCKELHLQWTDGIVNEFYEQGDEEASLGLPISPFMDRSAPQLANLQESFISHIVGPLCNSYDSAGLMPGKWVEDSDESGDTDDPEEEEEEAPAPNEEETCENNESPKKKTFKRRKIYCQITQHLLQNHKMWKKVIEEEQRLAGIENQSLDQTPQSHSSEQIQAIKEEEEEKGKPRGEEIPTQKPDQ
Chain of human PDE2 (O00408 whole entry): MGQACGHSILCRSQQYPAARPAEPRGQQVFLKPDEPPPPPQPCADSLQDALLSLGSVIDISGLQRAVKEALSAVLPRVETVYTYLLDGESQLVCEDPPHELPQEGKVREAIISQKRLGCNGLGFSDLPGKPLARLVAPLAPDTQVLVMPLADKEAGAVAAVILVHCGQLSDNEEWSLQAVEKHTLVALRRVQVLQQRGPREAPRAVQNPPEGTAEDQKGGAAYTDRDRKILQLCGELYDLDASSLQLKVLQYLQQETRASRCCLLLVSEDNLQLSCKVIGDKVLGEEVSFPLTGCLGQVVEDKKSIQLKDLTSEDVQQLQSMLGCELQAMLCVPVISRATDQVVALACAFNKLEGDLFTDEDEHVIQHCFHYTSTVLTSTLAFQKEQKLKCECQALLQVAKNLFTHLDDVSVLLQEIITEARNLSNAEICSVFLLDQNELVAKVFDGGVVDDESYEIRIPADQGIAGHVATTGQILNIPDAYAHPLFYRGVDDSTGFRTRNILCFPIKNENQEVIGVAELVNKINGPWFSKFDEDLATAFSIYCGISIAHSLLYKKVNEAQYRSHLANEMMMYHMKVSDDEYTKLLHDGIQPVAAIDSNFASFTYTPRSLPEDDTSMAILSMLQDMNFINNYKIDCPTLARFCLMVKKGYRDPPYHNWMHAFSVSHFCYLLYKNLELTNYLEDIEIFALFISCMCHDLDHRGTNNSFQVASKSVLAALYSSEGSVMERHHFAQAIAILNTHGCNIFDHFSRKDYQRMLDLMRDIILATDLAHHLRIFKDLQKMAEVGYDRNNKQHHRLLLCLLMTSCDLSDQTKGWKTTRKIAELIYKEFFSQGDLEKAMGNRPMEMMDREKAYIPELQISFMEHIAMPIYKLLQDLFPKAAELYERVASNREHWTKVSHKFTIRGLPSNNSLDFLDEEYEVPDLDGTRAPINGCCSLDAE

SMILES	Interconversion: Analysis by XRPD (solid form after equilibration) [1]	hygroscopicity [2]	XRPD pattern / solid form after full adsorption/desorption cycle [2]	moisture sorption mass change of the starting mass [2]	pIC50 (PDE4 (from U937 cells))	PDE1 (% inhib at 10 μM) (bovine PDE1; 10 μM)	PDE Specificity Ratio PDE4/PDE1 (bovine PDE1; from Table 1 data)	PDE Specificity Ratio PDE4/PDE2 (human PDE2)	PDE Specificity Ratio PDE4/PDE3 [3]	PDE Specificity Ratio PDE4/PDE5 [4]	Stability: Analysis by XRPD (solid form after stress) [5]	Stability: Appearance [5]	Stability: Analysis by XRPD (solid form after equilibration) [5, 7]	Stability: Analysis by XRPD (solid form after equilibration) [5, 8]	Stability: Analysis by XRPD (solid form after equilibration) [5, 9]	Stability: Analysis by XRPD (solid form after equilibration) [5, 10]	physical stability upon compression (XRPD) [6]
CCOc1cc(C(CS(C)(=O)=O)N2C(=O)c3cccc(NC(C)=O)c3C2=O)ccc1OC (single isomer, unassigned; (+)) [Form G, (+)-2-[1-(3-ethoxy-4-methoxyphenyl)-2-methylsulfonylethyl]-4-acetylaminoisoindoline-1,3-dione]	converts to Form B	substantially nonhygroscopic	substantially unchanged; also recorded: none of the forms analyzed underwent substantial solid-state transformation	about 0.4%	–	–	–	–	–	–	–	–	–	–	–	–	–
CCOc1cc(C(CS(C)(=O)=O)N2C(=O)c3cccc(NC(C)=O)c3C2=O)ccc1OC (single isomer, unassigned; (+)) [Form F, (+)-2-[1-(3-ethoxy-4-methoxyphenyl)-2-methylsulfonylethyl]-4-acetylaminoisoindoline-1,3-dione]	stable; also recorded: Form F	substantially nonhygroscopic	substantially unchanged; also recorded: none of the forms analyzed underwent substantial solid-state transformation	about 0.2%	–	–	–	–	–	–	–	–	–	–	–	–	–
CCOc1cc(C(CS(C)(=O)=O)N2C(=O)c3cccc(NC(C)=O)c3C2=O)ccc1OC (racemic) [Racemic Compound, 2-[1-(3-Ethoxy-4-methoxyphenyl)-2-methylsulfonylethyl]-4-acetylaminoisoindoline-1,3-dione]	–	–	–	–	7.09	9%	>2700 fold	>800 fold	>670 fold	>12000 fold	–	–	–	–	–	–	–
CCOc1cc(C(CS(C)(=O)=O)N2C(=O)c3cccc(NC(C)=O)c3C2=O)ccc1OC (single isomer, unassigned; (+)) [Form D, (+)-2-[1-(3-ethoxy-4-methoxyphenyl)-2-methylsulfonylethyl]-4-acetylaminoisoindoline-1,3-dione]	Form B	slightly hygroscopic	substantially unchanged; also recorded: none of the forms analyzed underwent substantial solid-state transformation	about 1.5%	–	–	–	–	–	–	stable; also recorded: Form D	White solid	converts to Form B	converts to Form B	converts to Form C	converts to Form B	substantially physically stable
CCOc1cc(C(CS(C)(=O)=O)N2C(=O)c3cccc(NC(C)=O)c3C2=O)ccc1OC (single isomer, unassigned; (+)) [Form B, (+)-2-[1-(3-ethoxy-4-methoxyphenyl)-2-methylsulfonylethyl]-4-acetylaminoisoindoline-1,3-dione]	–	substantially nonhygroscopic	substantially unchanged; also recorded: none of the forms analyzed underwent substantial solid-state transformation	about 0.6%	–	–	–	–	–	–	stable; also recorded: Form B	White solid	stable; also recorded: Form B	stable; also recorded: Form B	–	stable; also recorded: Form B	substantially physically stable
CCOc1cc(C(CS(C)(=O)=O)N2C(=O)c3cccc(NC(C)=O)c3C2=O)ccc1OC (single isomer, unassigned; (+)) [Form E, (+)-2-[1-(3-ethoxy-4-methoxyphenyl)-2-methylsulfonylethyl]-4-acetylaminoisoindoline-1,3-dione]	Form B	hygroscopic	substantially unchanged; also recorded: none of the forms analyzed underwent substantial solid-state transformation	about 5.1%	–	–	–	–	–	–	–	–	–	–	–	–	–
CCOc1cc(C(CS(C)(=O)=O)N2C(=O)c3cccc(NC(C)=O)c3C2=O)ccc1OC (single isomer, unassigned; (+)) [Form A, (+)-2-[1-(3-ethoxy-4-methoxyphenyl)-2-methylsulfonylethyl]-4-acetylaminoisoindoline-1,3-dione]	Form B	substantially nonhygroscopic	substantially unchanged; also recorded: none of the forms analyzed underwent substantial solid-state transformation	about 0.4%	–	–	–	–	–	–	stable; also recorded: Form A	White solid	stable; also recorded: Form F	stable; also recorded: Form A	converts to Form C	stable; also recorded: Form A	substantially physically stable
CCOc1cc(C(CS(C)(=O)=O)N2C(=O)c3cccc(NC(C)=O)c3C2=O)ccc1OC (single isomer, unassigned; (+)) [Form C, (+)-2-[1-(3-ethoxy-4-methoxyphenyl)-2-methylsulfonylethyl]-4-acetylaminoisoindoline-1,3-dione]	Form C	substantially nonhygroscopic	substantially unchanged; also recorded: none of the forms analyzed underwent substantial solid-state transformation	about 0.5%	–	–	–	–	–	–	stable; also recorded: Form C	Yellow solid	stable; also recorded: Form C	stable; also recorded: Form C	stable; also recorded: Form C	stable; also recorded: Form C	substantially physically stable
